Reference: paper PMC6273209, “Evaluation of the Enantiomer Specific Biokinetics and Radiation Doses of [^18F]Fluspidine—A New Tracer in Clinical Translation for Imaging of σ1 Receptors” (Molecules, 2016)

What was measured:
[1] = Acute toxicity study, single intravenous injection; assay type: in vivo; conditions: single intravenous administration, Wistar rats, day 2 and day 15; highest tested dose
Excerpt: Supplementary Materials: Evaluation of the Enantiomer Specific Biokinetics and Radiation Doses of [18F]Fluspidine—A New Tracer in Clinical
Translation for Imaging of σ1 Receptors […]
Supplemental Methods and Results
Animal Toxicity Study of (S)-(−)-Fluspidine
The purpose of this study was to assess the acute toxicity of (S)-(−)-fluspidine when administered by a single intravenous injection to rats followed by an observation period of 2 or 15 day (in accordance with EU cGLP). Briefly, the study was performed with 4 test groups, including 1 control (saline and dimethylsulfoxide) and 3 dose groups (6.2, 62 and 620 µg/kg, (S)- (−)ﬂuspidine), with Wistar rats (60 m, 60 f, 12 weeks) divided into two experiments: day 2 (40 males and 40 females) and day 15 (20 males and 20 females). The animals were weighted and allocated to the test groups based on their actual body weights. The animals were sacrificed at two time periods (day 2 and day 15 after test item administration) and then examined macroscopically and histopathologically. In addition the following parameters were evaluated: mortality, clinical observation (spasms, tremor and hyperactivity), body weights, food consumption, haematology (white blood cells, red blood cells, hemoglobin, hematocrit, mean corpuscular volume, mean corpuscular hemoglobin, platelets, lympohcytes, neutrophils, eosinophils, basophils, monocytes), clinical chemistry (alkaline phosphatase, aspartate aminotransferase, alanine aminotransferase, glucose, cholesterol, triacylglycerols, creatinine, urea, bilirubin, albumin, calcium, phosphorus, sodium, potassium chloride), pathology and histopathology. […]
in either gender were detected. The food consumption corresponded with body weight development. All haematology parameter´s values on day 2 and day 15 were within physiological range for this species. Individual divergences of some values of the haematology parameters were slight and not connected with treatment.
There were no findings in clinical chemistry parameters which could be definitively considered as adverse. The average values of all test groups were within the historical control ranges. Occasional changes had no dose relationship, they were considered to be a result of intraindividual and interindividual variability for this species. […]
histopathological parameters on day 2 and day 15. The no observed effect level (NOEL) of (S)- (−)-fluspidine after single intravenous administration in this study for both day 2 and day 15 was determined to be 620 µg/kg.

σ1 receptors = biological target: σ1 receptors; design: method as in PMID 24130175; conditions: read-out: Ki (affinity towards σ1 receptors); cited from earlier work

Q: With `FCC[C@@H]1OC2(CCN(Cc3ccccc3)CC2)c2ccccc21` [(S)-(−)-[^18F]fluspidine] as the compound, how does the “no observed effect level (NOEL)” value [1] read?
A: ≥ 0.6 mg/kg

Q: And the Ki (σ1 receptors)?
A: 2.3 nM
